Structures can show the parent of a compound that is named as a salt.
Molecular target: T1, human Cav2.2 (composed of the subunits α1, β3 and α2δ) (Homo sapiens, UniProt Q00975)
T1 construct: expressed in transfected cells
Assay: FLIPR assay (TSA201 cells stably transfected with human Cav2.2 and human Kir2.3, FLUO-4 Ca2+ signal, KCl depolarization)
Assay type: cell-based
Settings: 70 mM KCl depolarization, average value
Protocol: TSA201 cells stably transfected with human Cav2.2 (composed of the subunits α1, β3 and α2δ) and human Kir2.3 to enhance the FLIPR Ca^2+ signal were used. These cells were plated on 384-well collagen-coated plates (BD Bioscience, Franklin Lakes, N.J.) at a density of 2×10^4 cells/well one day prior to the FLIPR assay. […] Culture media is removed and replaced with 25 μl of the FLUO-4 dye solution and incubated for one hour at room temperature. The cell plate is then placed on the FLIPR where the dye is aspirated off and replaced with 25 μl of HBSS (Invitrogen, Carlsbad, Calif.). The HBSS is then aspirated and replaced with […] of compound which is diluted in HBSS with 1% DMSO. Compounds are incubated on the cells for 15 minutes. The cells are then depolarized with 25 μl of 140 mM KCl solution (also containing 2 mM CaCl2 and 10 mM HEPES). The final concentration of KCl on the cells is 70 mM.

T1 sequence (Q00975 whole entry): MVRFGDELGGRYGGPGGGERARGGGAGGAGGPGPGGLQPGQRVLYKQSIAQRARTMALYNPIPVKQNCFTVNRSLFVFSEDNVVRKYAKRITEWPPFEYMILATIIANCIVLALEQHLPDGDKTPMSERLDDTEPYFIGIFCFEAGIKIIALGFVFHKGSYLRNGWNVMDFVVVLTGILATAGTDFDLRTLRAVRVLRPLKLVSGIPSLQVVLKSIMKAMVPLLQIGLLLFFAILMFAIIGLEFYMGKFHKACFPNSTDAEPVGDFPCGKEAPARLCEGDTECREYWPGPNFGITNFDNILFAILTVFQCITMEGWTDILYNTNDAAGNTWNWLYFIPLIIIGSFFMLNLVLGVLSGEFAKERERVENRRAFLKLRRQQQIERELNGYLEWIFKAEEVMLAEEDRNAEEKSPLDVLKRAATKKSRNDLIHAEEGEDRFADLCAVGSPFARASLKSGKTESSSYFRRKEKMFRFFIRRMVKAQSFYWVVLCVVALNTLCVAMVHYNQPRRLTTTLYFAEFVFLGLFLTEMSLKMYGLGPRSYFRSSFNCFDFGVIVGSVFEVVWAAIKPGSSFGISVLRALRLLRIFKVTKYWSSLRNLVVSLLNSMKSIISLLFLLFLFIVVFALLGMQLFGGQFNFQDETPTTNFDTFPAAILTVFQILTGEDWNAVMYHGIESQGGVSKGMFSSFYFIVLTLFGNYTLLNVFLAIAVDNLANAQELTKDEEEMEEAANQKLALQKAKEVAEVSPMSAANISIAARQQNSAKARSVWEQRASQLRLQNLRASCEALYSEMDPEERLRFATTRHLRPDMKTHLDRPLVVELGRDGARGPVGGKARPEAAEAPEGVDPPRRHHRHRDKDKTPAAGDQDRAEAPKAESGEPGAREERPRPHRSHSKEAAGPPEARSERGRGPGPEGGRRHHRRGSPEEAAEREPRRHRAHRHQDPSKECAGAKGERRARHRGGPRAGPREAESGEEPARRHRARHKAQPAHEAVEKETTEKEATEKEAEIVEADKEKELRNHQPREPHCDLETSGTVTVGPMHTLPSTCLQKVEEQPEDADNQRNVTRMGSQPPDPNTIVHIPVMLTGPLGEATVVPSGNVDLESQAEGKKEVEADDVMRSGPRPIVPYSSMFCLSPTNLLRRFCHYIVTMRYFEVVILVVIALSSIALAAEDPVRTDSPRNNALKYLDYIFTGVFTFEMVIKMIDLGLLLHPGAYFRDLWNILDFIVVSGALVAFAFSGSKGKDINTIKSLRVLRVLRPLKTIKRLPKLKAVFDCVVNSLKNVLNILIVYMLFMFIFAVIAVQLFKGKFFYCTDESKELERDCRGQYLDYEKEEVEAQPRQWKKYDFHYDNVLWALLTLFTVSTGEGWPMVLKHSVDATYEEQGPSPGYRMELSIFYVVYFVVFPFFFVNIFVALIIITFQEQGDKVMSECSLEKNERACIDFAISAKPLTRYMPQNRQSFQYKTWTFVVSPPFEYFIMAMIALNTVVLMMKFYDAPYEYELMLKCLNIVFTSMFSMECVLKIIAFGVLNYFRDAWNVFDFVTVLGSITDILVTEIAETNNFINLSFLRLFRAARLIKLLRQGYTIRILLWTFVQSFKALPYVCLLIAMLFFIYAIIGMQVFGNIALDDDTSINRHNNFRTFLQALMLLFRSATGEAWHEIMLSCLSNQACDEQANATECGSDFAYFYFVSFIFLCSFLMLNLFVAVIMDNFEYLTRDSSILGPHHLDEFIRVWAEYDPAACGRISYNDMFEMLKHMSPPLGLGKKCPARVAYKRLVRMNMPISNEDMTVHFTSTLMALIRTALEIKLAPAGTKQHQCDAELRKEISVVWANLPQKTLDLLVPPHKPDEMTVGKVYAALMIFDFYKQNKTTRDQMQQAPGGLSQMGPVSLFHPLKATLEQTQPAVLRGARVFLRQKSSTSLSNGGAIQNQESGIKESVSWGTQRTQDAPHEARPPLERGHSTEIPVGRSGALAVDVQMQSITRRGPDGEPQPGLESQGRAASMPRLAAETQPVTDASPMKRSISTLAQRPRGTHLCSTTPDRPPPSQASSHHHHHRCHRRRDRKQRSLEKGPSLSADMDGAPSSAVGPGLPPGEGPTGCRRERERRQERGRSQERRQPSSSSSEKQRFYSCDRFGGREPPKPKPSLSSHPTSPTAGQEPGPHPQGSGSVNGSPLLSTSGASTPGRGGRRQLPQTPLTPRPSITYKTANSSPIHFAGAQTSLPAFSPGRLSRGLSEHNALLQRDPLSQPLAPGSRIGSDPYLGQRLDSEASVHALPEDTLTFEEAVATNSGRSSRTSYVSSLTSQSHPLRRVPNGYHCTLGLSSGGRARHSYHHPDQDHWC
T1 sequence (P54284 whole entry partner): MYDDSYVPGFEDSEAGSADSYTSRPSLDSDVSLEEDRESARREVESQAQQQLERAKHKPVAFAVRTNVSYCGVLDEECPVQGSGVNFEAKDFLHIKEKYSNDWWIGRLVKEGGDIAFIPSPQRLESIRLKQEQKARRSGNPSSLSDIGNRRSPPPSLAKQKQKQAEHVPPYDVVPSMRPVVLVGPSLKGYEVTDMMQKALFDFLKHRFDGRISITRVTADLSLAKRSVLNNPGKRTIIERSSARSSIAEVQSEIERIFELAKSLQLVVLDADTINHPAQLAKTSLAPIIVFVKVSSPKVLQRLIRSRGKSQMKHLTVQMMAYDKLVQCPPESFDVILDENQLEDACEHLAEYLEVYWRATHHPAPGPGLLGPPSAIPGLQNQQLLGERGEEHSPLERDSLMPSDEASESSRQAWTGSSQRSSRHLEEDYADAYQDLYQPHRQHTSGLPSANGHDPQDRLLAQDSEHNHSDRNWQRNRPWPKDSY
T1 sequence (P54289 25-946 partner limits assumed): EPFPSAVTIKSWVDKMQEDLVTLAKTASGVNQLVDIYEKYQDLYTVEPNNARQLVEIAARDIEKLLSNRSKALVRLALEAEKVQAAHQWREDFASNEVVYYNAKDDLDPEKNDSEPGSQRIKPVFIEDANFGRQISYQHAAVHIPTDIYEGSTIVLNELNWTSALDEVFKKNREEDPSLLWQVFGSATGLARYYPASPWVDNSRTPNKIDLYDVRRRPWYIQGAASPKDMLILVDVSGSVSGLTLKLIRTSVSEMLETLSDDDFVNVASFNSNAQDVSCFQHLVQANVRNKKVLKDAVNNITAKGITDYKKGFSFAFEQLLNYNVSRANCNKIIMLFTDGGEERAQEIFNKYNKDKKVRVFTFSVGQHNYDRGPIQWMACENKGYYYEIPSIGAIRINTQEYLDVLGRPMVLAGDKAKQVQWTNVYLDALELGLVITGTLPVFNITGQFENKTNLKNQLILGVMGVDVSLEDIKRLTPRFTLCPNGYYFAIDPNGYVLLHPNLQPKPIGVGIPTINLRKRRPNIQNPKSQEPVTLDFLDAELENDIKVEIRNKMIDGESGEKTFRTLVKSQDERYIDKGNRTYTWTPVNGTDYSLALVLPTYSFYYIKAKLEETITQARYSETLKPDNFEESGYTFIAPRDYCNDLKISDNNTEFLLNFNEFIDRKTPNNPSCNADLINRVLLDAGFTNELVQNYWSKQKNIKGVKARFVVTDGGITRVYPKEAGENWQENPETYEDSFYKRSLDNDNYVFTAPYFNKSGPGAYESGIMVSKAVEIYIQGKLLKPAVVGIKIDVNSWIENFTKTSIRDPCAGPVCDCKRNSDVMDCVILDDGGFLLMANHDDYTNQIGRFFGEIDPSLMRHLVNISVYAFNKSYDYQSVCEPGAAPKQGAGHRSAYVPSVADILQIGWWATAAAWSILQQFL
T1 sequence (P54289 947-1103 partner limits assumed): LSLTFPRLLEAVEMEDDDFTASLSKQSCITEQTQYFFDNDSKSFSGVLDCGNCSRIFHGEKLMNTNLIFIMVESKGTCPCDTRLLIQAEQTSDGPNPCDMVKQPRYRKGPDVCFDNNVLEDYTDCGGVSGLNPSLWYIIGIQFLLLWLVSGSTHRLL

IC50	SMILES
10.6 µM	CN1CCN(c2nc(CN(C(=O)C(C)(C)C)c3ccc(F)cc3)cs2)CC1 [Compound 150, N-(4-fluorophenyl)-2,2-dimethyl-N-{[2-(4-methylpiperazin-1-yl)-1,3-thiazol-4-yl]methyl}propanamide]
4 µM	CC(C)(C)C(=O)N(Cc1csc(N2CCN(c3ncccn3)CC2)n1)c1ccc(F)cc1 [Compound 151, N-(4-fluorophenyl)-2,2-dimethyl-N-{[2-(4-pyrimidin-2-ylpiperazin-1-yl)-1,3-thiazol-4-yl]methyl}propanamide dihydrochloride]
8.3 µM	CC(C)(C)C(=O)N(Cc1csc(N2CCNCC2)n1)c1ccc(F)cc1 [Compound 152, N-(4-fluorophenyl)-2,2-dimethyl-N-[(2-piperazin-1-yl-1,3-thiazol-4-yl)methyl]propanamide]
12.9 µM	CN(C)CCNc1nc(CN(C(=O)C(C)(C)C)c2ccc(F)cc2)cs1 [Compound 153, N-[(2-{[2-(dimethylamino)ethyl]amino}-1,3-thiazol-4-yl)methyl]-N-(4-fluorophenyl)-2,2-dimethylpropanamide]
9 µM	CN(C)CCCNc1nc(CN(C(=O)C(C)(C)C)c2ccc(F)cc2)cs1 [Compound 154]
8.5 µM	CN(C)CCCCNc1nc(CN(C(=O)C(C)(C)C)c2ccc(F)cc2)cs1 [Compound 155, N-[(2-{[4-(dimethylamino)butyl]amino}-1,3-thiazol-4-yl)methyl]-N-(4-fluorophenyl)-2,2-dimethylpropanamide]
3 µM	CC(C)(C)C(=O)N(Cc1csc(NC2CCCC2)n1)c1ccc(F)cc1 [Compound 156, N-{[2-(cyclopentylamino)-1,3-thiazol-4-yl]methyl}-N-(4-fluorophenyl)-2,2-dimethylpropanamide]
8.8 µM	CC(C)(C)C(=O)N(Cc1csc(NC2CCCCC2)n1)c1ccc(F)cc1 [Compound 157, N-{[2-(cyclohexylamino)-1,3-thiazol-4-yl]methyl}-N-(4-fluorophenyl)-2,2-dimethylpropanamide]
9.4 µM	CC(C)(C)C(=O)N(Cc1csc(Nc2ccc(F)cc2)n1)c1ccc(F)cc1 [Compound 158, N-(4-fluroophenyl)-N-({2-[(4-fluorophenyl)amino]-1,3-thiazol-4-yl}methyl)-2,2-dimethylpropanamide]
10.2 µM	CC(C)(C)C(=O)N(Cc1csc(Nc2ccccc2F)n1)c1ccc(F)cc1 [Compound 159, N-(4-fluorophenyl)-N-({2-[(2-fluorophenyl)amino]-1,3-thiazol-4-yl}methyl)-2,2-dimethylpropanamide]
6.1 µM	CNc1nc(CN(C(=O)C(C)(C)C)c2ccc(F)cc2)cs1 [Compound 160, N-(4-fluorophenyl)-2,2-dimethyl-N-{[2-(methylamino)-1,3-thiazol-4-yl]methyl}propanamide]
2.7 µM	CC(C)CNc1nc(CN(C(=O)C(C)(C)C)c2ccc(F)cc2)cs1 [Compound 161, N-(4-fluorophenyl)-N-{[2-(isobutylamino)-1,3-thiazol-4-yl]methyl}-2,2-dimethylpropanamide]
11 µM	CC(C)(C)C(=O)N(Cc1csc(N2C[C@@H]3C[C@H]2CN3)n1)c1ccc(F)cc1 [Compound 162, N-({2-[(1S,4S)-2,5-diazabicycl[2.2.1]hept-2-yl]-1,3-thiazol-4-yl}methyl)-N-(4-fluorophenyl)-2,2-dimethylpropanamide]
7.7 µM	CCCNc1nc(CN(C(=O)C(C)(C)C)c2ccc(F)cc2)cs1 [Compound 163, N-(4-fluorophenyl)-2,2-dimethyl-N-{[2-(propylamino)-1,3-thiazol-4-yl]methyl}propanamide]
4.75 µM	CN(C)c1nc(CN(C(=O)C(C)(C)C)c2ccc(F)cc2)cs1 [Compound 164, N-{[2-(dimethylamino)-1,3-thiazol-4-yl]methyl}-N-(4-fluorophenyl)-2,2-dimethylpropanamide]

Source: patent US20100267697A1, “ION CHANNEL MODULATORS” (Wyeth, priority 2006, published 2010)
